# Experiments:
# [1] = 5-FU that is taken up by the cell; cited from earlier work
# L1210DDP [2] = details: graded concentrations of sodium acetate
# Method: (§1) Sodium Acetate as a mitochondrial modifying agent was examined. L1210 or L1210DDP cells were cultured in the presence of graded concentrations of sodium acetate in the medium. Cells were stained with Jo2.2, a fluorescein conjugated anti-Fas antibody, or an isotype control. Cell surface staining was measured flow cytometrically. The percentage of mean fluorescence intensity over the isotype control was plotted.
# L1210 [3] = details: graded concentrations of sodium acetate
# Method: as §1
# B16 melanoma cells [4] = details: increasing concentrations of sodium acetate
# Method: B16 cells were cultured in the in the presence of different concentrations of sodium acetate and Fas expression was measured.
# B16 cells also were cultured in the presence of different concentrations of sodium acetate and Fas expression was measured.
# L1210DDP [5] = test system: L1210DDP
# Description: (§2) The effects of acetate on susceptibility to Fas-dependent cell death were also examined.
# L1210 [6] = test system: L1210
# Description: as §2
# B16 melanoma cells [7] = details: increasing concentrations of sodium acetate; remark: listed apart in the source
# Method: Again cells were cultured in the presence of varying concentration of sodium acetate.
# MDR cells = assay: Inhibition of lysosomal UCP translocation; format: cell-based
# Method: MDR cells, which are plasma membrane UCP negative and lysosomal UCP positive were treated with tunicamycin. […] These same cells were treated with tunicamycin and an-anti-UCP2 antibody.
# [8] = metabolite formed from 5-FU; cited from earlier work
# L1210 DDP = assay: Fas expression after treatment with staurosporin or adriamycin; format: cell-based
# Description: (§3) 4. Treatment of L1210 DDP cells with staurosporin restores Fas expression and susceptibility to drug-induced apoptosis: L1210, but not L1210 DDP, undergo apoptotic cell death. We treated L1210 or L1210 DDP cells with the staurosporin, which inhibits protein kinase C and increases mitochondrial membrane potential, or an anti-cancer agent to which both cells are sensitive, adriamycin. Fas expression was increased or induced on both L1210 and L1210 DDP, respectively, in the presence of staurosporin or adriamycin. The L1210 DDP changed morphologically and began to divide rapidly, changes which appeared to correspond with a reversion back to the phenotype of the L1210 cells.
# L1210 [9] = assay: as above; format: cell-based
# Description: as §3
# L1210/DDP = assay: Analysis of DNA fragments after methotrexate treatment; format: cell-based; details: 10^-8 M methotrexate, 24 hours
# Method: (§4) Additionally, L1210 and L1210/DDP cells were treated with 10^-8 M methotrexate for 24 hours. […] The forward scatter low populations took up ethidium bromide differentially. The L1210 cells took up a moderate amount. […] This latter phenotype—loss in forward scatter and membrane permeability with no “DNA laddering”—is the hall mark of oncosis.
# L1210 [10] = assay: as above; format: cell-based; details: 10^-8 M methotrexate, 24 hours
# Method: as §4
# [11] = test system: Fas deficient lymphocytes; assay: Methotrexate-induced apoptosis in splenic lymphocytes, viability by flow cytometry and trypan blue; format: cell-based, mice; details: splenocytes of C57BL/6 lpr or gld vs wild type; 5×10^−8 M methotrexate, 18 or 32 hours
# Method: 8. Fas Deficient Lymphocytes are also drug resistant to methotrexate: We isolated splenic lymphocytes from aged-matched wild type C57BL/6 mice and C57BL6.1pr and C57BL.gld. Splenocytes from C57BL/6 lpr or gld animals were isolated, red cells depleted, and single cell suspensions prepared. Cells were cultured in the absence or presence of 5×10^−8 M methotrexate for 18 or 32 hours. Cells were harvested and viability was determined by flow cytometric analysis and confirmed with trypan blue exclusion.
molecule,measurement,setting,value
"O=c1[nH]cc(F)c(=O)[nH]1 [5-FU, 5-Fluorouracil]",half-life in vivo,[1],about 18 minutes
CC(=O)[O-].[Na+] [sodium acetate],cell surface Fas expression,L1210DDP [2],increases cell surface Fas expression
same,cell surface Fas expression,L1210 [3],increases cell surface Fas expression
same,levels of cell surface Fas,B16 melanoma cells [4]; non-permeabilized B16,increased
same,levels of intracellular Fas,B16 melanoma cells [4]; permeabilized B16,declined
same,susceptibility to Fas-dependent cell death,L1210DDP [5],resulted in susceptibility to Fas-dependent cell death
same,susceptibility to Fas-dependent cell death,L1210 [6],resulted in susceptibility to Fas-dependent cell death
same,glucose oxidation,B16 melanoma cells [7],decreased
same,glucose utilization,B16 melanoma cells [7],decreased
tunicamycin,localization of intracellular UCP,MDR cells,shift in the intracellular UCP from the lysosome and mitochondria to the plasma membrane
"NCC(F)C(=O)O (stereo not drawn) [2-fluoro-β-alanine (FBAL), 2-fluoro-β-alanine]",toxicity,[8],neurotoxic and cardiotoxic
COc1cccc2c1C(=O)c1c(O)c3c(c(O)c1C2=O)C[C@@](O)(C(=O)CO)C[C@@H]3O[C@H]1C[C@H](N)[C@H](O)[C@H](C)O1 [adriamycin],Fas expression,L1210 DDP,induced
same,Fas expression,L1210 [9],increased
CN(Cc1cnc2nc(N)nc(N)c2n1)c1ccc(C(=O)N[C@@H](CCC(=O)O)C(=O)O)cc1 [methotrexate],DNA laddering (nucleosome sized fragments),L1210/DDP,did not
same,DNA laddering (nucleosome sized fragments),L1210 [10],produced a ladder of nucleosome sized fragments indicative of apoptosis
same,susceptibility to methotrexate-induced apoptosis,[11],decreased susceptibility
CN[C@@H]1C[C@H]2O[C@@](C)([C@@H]1OC)n1c3ccccc3c3c4c(c5c6ccccc6n2c5c31)C(=O)NC4 [staurosporin],Fas expression,L1210 DDP,induced
same,Fas expression,L1210 [9],increased
